According to BigSolDB 2.1:

CC(=O)N1CCN(c2ccc(OC[C@@H]3CO[C@@](Cn4ccnc4)(c4ccc(Cl)cc4Cl)O3)cc2)CC1 (racemic)
solubility (mole fraction) (in isopropanol, 293.2 K): 0.000774 | solubility (mole fraction) (in isopropanol, 298.2 K): 0.00102 | solubility (mole fraction) (in isopropanol, 303.2 K): 0.00136 | solubility (mole fraction) (in isopropanol, 308.2 K): 0.00204 | solubility (mole fraction) (in isopropanol, 313.2 K): 0.00291 | solubility (mole fraction) (in propylene glycol, 293.2 K): 0.00148 | solubility (mole fraction) (in propylene glycol, 298.2 K): 0.00195 | solubility (mole fraction) (in propylene glycol, 303.2 K): 0.00264 | solubility (mole fraction) (in propylene glycol, 308.2 K): 0.0039 | solubility (mole fraction) (in propylene glycol, 313.2 K): 0.00562
